Measurements published in patent publication US8309685B2 (Celgene Avilomics Research, Inc., priority 2007, dated 2012).
Where two headings read alike, the source gives them in different places.

Key:
[1] = molecular target: T1, wild type HCV NS3/4A 1b protease enzyme (Hepatitis C virus genotype 1b, UniProt P26663); assay: HCV Protease FRET Assay (IC50_APP), wild type; assay type: biochemical
T1 construct: 10× stocks of NS3/4A protease enzyme from Bioenza (Mountain View, Calif.); purchased Bioenza (Mountain View, Calif.)

[2] = molecular target: T2, D168A mutant of the HCV NS3/4A 1b protease enzyme (Hepatitis C virus genotype 1b, UniProt P26663, D1194A); assay: HCV Protease FRET Assay (IC50_APP), D168A mutant; assay type: biochemical
T2 construct: 10× stocks of NS3/4A protease enzyme from Bioenza (Mountain View, Calif.); purchased Bioenza (Mountain View, Calif.)

[3] = molecular target: T3, R155K mutant of the HCV NS3/4A 1b protease enzyme (Hepatitis C virus genotype 1b, UniProt P26663, R1181K); assay: HCV Protease FRET Assay (IC50_APP), R155K mutant; assay type: biochemical
T3 construct: 10× stocks of NS3/4A protease enzyme from Bioenza (Mountain View, Calif.); purchased Bioenza (Mountain View, Calif.)
Procedure: HCV Protease FRET Assay for WT and Mutated NS3/4A 1b Enzymes (IC50—APP).
The following protocol was used to generate “apparent” IC50 (IC50—APP) values as depicted in Table 6, below. […] 5 μL of each enzyme were added to Corning (#3575) 384-well, black, microtiter plates (Corning, N.Y.) after spotting a 0.5 μL volume of 50% DMSO and serially diluted compounds prepared in 50% DMSO. Protease reactions were immediately started after enzyme addition with the addition of 45 μL of the FRET substrate and monitored for 60-90 minutes at λex485/λem520 in a Synergy^4 plate reader from BioTek (Winooski, Vt.). At the conclusion of each assay, progress curves from each well were examined for linear reaction kinetics and fit statistics (R^2, 95% confidence intervals, absolute sum of squares).
The compound numbers correspond to the compound numbers in Table 3. […] ;

[4] = test system: HCV RNA replicon in cell line ET (luc-ubi-neo/ET), human Huh7 hepatoma; assay: Luciferase Assay (Example 35), replicon-derived luciferase activity; assay type: cell-based; conditions: Hepatitis C virus, Huh-7, assay described in Example 35
Procedure: The compounds were assayed to evaluate the antiviral activity and cytotoxicity of compounds using replicon-derived luciferase activity. This assay used the cell line ET (luc-ubi-neo/ET), which is a human Huh7 hepatoma cell line that contains an HCV RNA replicon with a stable luciferase (Luc) reporter and cell culture-adaptive mutations. The ET cell line was grown in a 5% CO2 incubator at 37° C. in Dulbecco's modified essential media (DMEM) supplemented with 2 mM L-glutamine, nonessential amino acids, 100 U of penicillin/ml, 100 μg of streptomycin/mL, and 10% fetal bovine serum. G418 (Geneticin; Invitrogen) was added at a final concentration of 400 ug//mL.
All cell culture reagents were obtained from Invitrogen (Carlsbad). Cells were trypsinized (1% trypsin:EDTA) and plated out at 5×10^3 cells/well in white 96-well assay plates (Costar) dedicated to cell number (cytotoxicity) or antiviral activity assessments. Test compounds were added at six 3-fold concentrations each and the assay was run in DMEM, 5% FBS, 1% pen-strep, 1% glutamine, 1% non essential amino acid. Human interferon alpha-2b (PBL Biolabs, New Brunswick, N.J.) was included in each run as a positive control compound. Cells were processed 72 hr post test compound addition when the cells were still subconfluent. Antiviral activity was measured by analyzing replicon-derived luciferase activity using the Steady-Glo Luciferase Assay System (Promega, Madison, Wis.) according to manufacturer's instruction. The number of cells in each well was determined by Cell Titer Blue Assay (Promega). Compound profile was derived by calculating applicable EC50 (effective concentration inhibiting virus replication by 50%), EC90 (effective concentration inhibiting virus replication by 90%), IC50 (concentration decreasing cell viability by 50%) and SI50 (selective index: […]) values.

[5] = read-out: IC50_APP, WT, apparent IC50, wild type NS3/4A 1b
[6] = apparent IC50, D168A mutant; read-out: IC50_APP, HCV D168A
[7] = apparent IC50, R155K mutant; read-out: IC50_APP, HCV R155K

Row | SMILES | IC50 [1, 5] [nM] | IC50 [2, 6] [nM] | IC50 [3, 7] [nM] | EC50 [4] [nM] | IC50 [1] [nM] | EC90 [4] [nM] | IC50 ([2]; read-out: IC50_APP, HCV D168A; apparent IC50, D168A mutant) [nM] | IC50 ([3]; read-out: IC50_APP, HCV R155K; apparent IC50, R155K mutant) [nM]
1 | C=CC(=O)N[C@@H](C(=O)N1C[C@H](Oc2nccc3cc(OC)ccc23)C[C@H]1C(=O)N[C@]1(C(=O)NS(=O)(=O)C2CC2)C[C@H]1C=C)C(C)C [Compound I-101] | < 10 | 100 to 1000 | 10 to 100 | 10 to 100 |  |  |  | 
2 | C=C(C)C(=O)C[C@H](NC(=O)OC(C)(C)C)C(=O)N1C[C@H](Oc2nccc3cc(OC)ccc23)C[C@H]1C(=O)N[C@]1(C(=O)NS(=O)(=O)C2CC2)C[C@H]1CC [Compound I-140] | < 10 | 10 to 100 | < 10 | 100 to 1000 |  |  |  | 
3 | C=C[C@@H]1C[C@]1(NC(=O)[C@@H]1C[C@@H](Oc2nccc3cc(OC)ccc23)CN1C(=O)[C@H](CC(=O)C=C(C)C)NC(=O)OC(C)(C)C)C(=O)NS(=O)(=O)C1CC1 [Compound I-129] | < 10 | 100 to 1000 | 10 to 100 | < 10 |  |  |  | 
4 | C=C[C@@H]1C[C@]1(NC(=O)[C@@H]1C[C@@H]2CN1C(=O)[C@H](CCC(=O)C=C(C)C)NC(=O)OCCC/C=C/c1ccc3ccnc(c3c1)O2)C(=O)NS(=O)(=O)C1CC1 [Compound I-102] |  | 1000 to 10000 | 10 to 100 | < 10 | < 10 | 10 to 100 |  | 
5 | C=C[C@@H]1C[C@]1(NC(=O)[C@@H]1C[C@@H](Oc2nccc3cc(OC)ccc23)CN1C(=O)[C@H](CCC(=O)C#CC(C)(C)C)NC(=O)OC(C)(C)C)C(=O)NS(=O)(=O)C1CC1 [Compound I-135] | < 10 | < 10 | < 10 | 10 to 100 |  |  |  | 
6 | C=C[C@@H]1C[C@]1(NC(=O)[C@@H]1C[C@@H](Oc2nccc3cc(OC)ccc23)CN1C(=O)[C@H](CC(=O)C(=C)C)NC(=O)OC(C)(C)C)C(=O)NS(=O)(=O)C1CC1 [Compound I-132] | < 10 | < 10 | < 10 | 100 to 1000 |  |  |  | 
7 | C=C[C@@H]1C[C@]1(NC(=O)[C@@H]1C[C@@H](Oc2nccc3cc(OC)ccc23)CN1C(=O)[C@H](CCC(=O)C#Cc1ccccc1)NC(=O)OC(C)(C)C)C(=O)NS(=O)(=O)C1CC1 [Compound I-138] | < 10 | 10 to 100 | < 10 | 100 to 1000 |  |  |  | 
8 | C=CC(=O)NC[C@H](NC(=O)OC(C)(C)C)C(=O)N1C[C@H](Oc2nccc3ccccc23)C[C@H]1C(=O)N[C@]1(C(=O)NS(=O)(=O)C2CC2)C[C@H]1C=C [Compound I-97, {1-(Acryloylamino-methyl)-2-[2-(1-cyclopropanesulfonylaminocarbonyl-2-vinyl-cyclopropylcarbamoyl)-4-(isoquinolin-1-yloxy)-pyrrolidin-1-yl]-2-oxo-ethyl}-carbamic acid tert-butyl ester] | < 10 |  |  | 100 to 1000 |  | 100 to 1000 | 100 to 1000 | 100 to 1000
9 | C=CC(=O)N[C@H](C)C(=O)N1C[C@H](Oc2nccc3cc(OC)ccc23)C[C@H]1C(=O)N[C@]1(C(=O)NS(=O)(=O)C2CC2)C[C@H]1C=C [Compound I-100] | < 10 | 10 to 100 | < 10 | 10 to 100 |  |  |  | 
10 | C=C[C@@H]1C[C@]1(NC(=O)[C@@H]1C[C@@H](Oc2nccc3cc(OC)ccc23)CN1C(=O)[C@@H](C)NC(=O)CC)C(=O)NS(=O)(=O)C1CC1 [I^R-100, (2S,4R)—N-((1R,2S)-1-(cyclopropylsulfonylcarbamoyl)-2-vinylcyclopropyl)-4-(6-methoxyisoquinolin-1-yloxy)-1-((R)-2-propionamidopropanoyl)pyrrolidine-2-carboxamide] |  | 1000 to 10000 | 1000 to 10000 | 1000 to 10000 | 100 to 1000 |  |  | 
11 | C=C[C@@H]1C[C@]1(NC(=O)[C@@H]1C[C@@H](Oc2nccc3cc(OC)ccc23)CN1C(=O)[C@H](CCC(=O)/C=C/C)NC(=O)OC(C)(C)C)C(=O)NS(=O)(=O)C1CC1 [Compound I-139] | < 10 | < 10 | < 10 | 10 to 100 |  |  |  | 
12 | C=CC(=O)N(C)C[C@H](NC(=O)OC(C)(C)C)C(=O)N1C[C@H](Oc2nccc3ccccc23)C[C@H]1C(=O)N[C@]1(C(=O)NS(=O)(=O)C2CC2)C[C@H]1C=C [Compound I-98, {1-[(Acryloyl-methyl-amino)-methyl]-2-[2-(1-cyclopropanesulfonylaminocarbonyl-2-vinyl-cyclopropylcarbamoyl)-4-(isoquinolin-1-yloxy)-pyrrolidin-1-yl]-2-oxo-ethyl}-carbamic acid tert-butyl ester] | 10 to 100 | 100 to 1000 | 100 to 1000 | 10 to 100 |  | 100 to 1000 |  | 
13 | C=C[C@@H]1C[C@]1(NC(=O)[C@@H]1C[C@@H](Oc2nccc3cc(OC)ccc23)CN1C(=O)[C@H](CCC(=O)/C=C/C1CCCC1)NC(=O)OC(C)(C)C)C(=O)NS(=O)(=O)C1CC1 [Compound I-141, tert-butyl-(S,E)-7-cyclopentyl-1-((2S,4R)-2-((1R,2S)-1-(cyclopropylsulfonylcarbamoyl)-2-vinylcyclopropylcarbamoyl)-4-(6-methoxyisoquinolin-1-yloxy)pyrrolidin-1-yl)-1,5-dioxohept-6-en-2-ylcarbamate] |  | 100 to 1000 | 10 to 100 | < 10 | < 10 |  |  | 
14 | C=CC(=O)NC[C@H](NC(=O)OC(C)(C)C)C(=O)N1C[C@H](Oc2nccc3cc(OC)ccc23)C[C@H]1C(=O)N[C@]1(C(=O)NS(=O)(=O)C2CC2)C[C@H]1C=C [Compound I-92, {1-(Acryloylamino-methyl)-2-[2-(1-cyclopropanesulfonylaminocarbonyl-2-vinyl-cyclopropylcarbamoyl)-4-(6-methoxy-isoquinolin-1-yloxy)-pyrrolidin-1-yl]-2-oxo-ethyl}-carbamic acid tert-butyl ester] | < 10 | 100 to 1000 | 10 to 100 | 10 to 100 |  | 100 to 1000 |  | 
15 | C=CC(=O)N[C@H](C(=O)N1C[C@H](Oc2nccc3cc(OC)ccc23)C[C@H]1C(=O)N[C@]1(C(=O)NS(=O)(=O)C2CC2)C[C@H]1C=C)C(C)(C)O [Compound I-131] | < 10 | 10 to 100 | 10 to 100 | 100 to 1000 |  |  |  | 
16 | C=C[C@@H]1C[C@]1(NC(=O)[C@@H]1C[C@@H](Oc2nccc3ccc(Br)cc23)CN1C(=O)[C@H](CCC(=O)/C(C)=C/C)NC(=O)OC(C)(C)C)C(=O)NS(=O)(=O)C1CC1 [Compound I-91, {1-[4-(7-Bromo-isoquinolin-1-yloxy)-2-(1-cyclopropanesulfonylaminocarbonyl-2-vinyl-cyclopropylcarbamoyl)-pyrrolidine-1-carbonyl]-5-methyl-4-oxo-hept-5-enyl}-carbamic acid tert-butyl ester] | < 10 | 1000 to 10000 | 100 to 1000 | 10 to 100 |  | 100 to 1000 |  | 
